We go through one compound from publication PMC11568214, “The impact of 9-azaglycophymine and phenylguanidine derivatives on the proliferation of various breast cancer cell lines in vitro and in vivo” (Scientific Reports, 2024).

Structures are written as SMILES.

Assay [1] has as its system MDA-MB-468. Put plainly: Crystal violet (CV) cell viability assay, IC50 determination. It counts as cell-based, human. Here is the method:
(§1) For initial testing of the cytotoxic effect of the available glycophymine compounds (Table S2), cells were treated with compound in three concentrations: 1, 10 and 50 µM. Cells were seeded in 96-well plates and allowed to adhere overnight. Then they were treated for 72 h under standard culture conditions. […] For IC50 determination, the compounds were tested at seven concentrations (0.78, 1.56, 3.13, 6.25, 12.5, 25 and 50 µM). Subsequently, the cell viability was determined by using the crystal violet (CV) assay. Moreover, the selected compounds were tested against the mouse breast cancer cell line 4T1 (TNBC) as well. The compounds were prepared initially to obtain a stock solution of 20 mM in DMSO. Later, the working solutions were prepared by mixing the required amount of DMSO stock with the optimal medium for each cell line. The DMSO concentration in the final solution was always maintained lower than 0.5% to avoid any DMSO-derived side effects.
(§2) For CV assays, after 72 h treatment, the treatment medium was discarded from the 96-well plates, and the cells were washed using 50 µL of PBS. Cells were fixed by adding 50 µL of 4% (v/v) paraformaldehyde (PFA) in PBS for 15 min at room temperature (RT). Afterwards, PFA was discarded, and the plates were dried for 15 min at RT. 50 µL of CV working solution (0.1% w/v CV in PBS) were added to the wells, followed by 15 min incubation at RT. Subsequently, the CV solution was discarded, and the plates were washed using aqua bidest. (ddH2O) to remove any remaining CV solution. The plates were left to dry overnight at RT, and then 50 µL of 33% (v/v) acetic acid in ddH2O were added to each well. Finally, the absorbance was measured at 570 nm by using a SpectraMax M5 plate reader (Molecular Devices, California, USA) and at 670 nm as background wavelength. […] Additionally, gefitinib, an approved EGFR inhibitor of the quinazoline family, was tested as anti-proliferative positive control. The data represent the mean ± standard deviation derived from three independent biological replicates. Dose–response curves were generated by four-parametric non-linear regression analysis using the GraphPad Prism software (version: 10.1, San Diego, CA, USA). Based on that, IC50 values and standard deviations were calculated for each replicate individually.

Assay [2] has as its system BT-474. Put plainly: Pan-caspase activation, ApoStat staining, flow cytometry. It counts as cell-based, human. Further details: key: ↑: induction; ↓: inhibition; ↔: no effect. Particulars: BT-474, IC50 for 72 h. On the procedure:
(§3) Cells were seeded in 6-well plates and incubated for 24 h under standard culture conditions. […] For the analyses of pan-caspase activation, the cell suspension was centrifuged for 3 min at 800 rpm, and the cell pellet was stained with 100 µL of ApoStat working solution (1 µL of ApoStat and 5% (v/v) FCS in 100 µL of PBS). Cells were incubated for 30 min under standard culture conditions. The cell suspension was centrifuged for 3 min at 800 rpm, and the cell pellet was washed with 1 mL of fresh PBS. Finally, all samples were analyzed by using flow cytometry (FACSAria III, BD Biosciences, New Jersey, USA).
A general note: A flow cytometer gives signals particle by particle.

For assay [3], the system named is MCF-7. Described as above. Particulars: MCF-7, IC50 for 72 h. It counts as cell-based, human. More on the design: key: ↑: induction; ↓: inhibition; ↔: no effect. On the procedure: as §3
Assay [4] deals with MDA-MB-468. The description is as above. Type of assay: cell-based, human. More on the design: key: ↑: induction; ↓: inhibition; ↔: no effect. The note with it: MDA-MB-468, IC50 for 72 h. Here is the method: as §3
Assay [5] concerns HCC1937. The description is as above. The note with it: HCC1937, IC50 for 72 h. More on the design: key: ↑: induction; ↓: inhibition; ↔: no effect. It counts as cell-based, human. Here is the method: as §3
The test system of the next assay is MCF-10A. The experiment in a line: CV cell viability assay on healthy breast cell line. Type of assay: cell-based. Particulars: Homo sapiens, 72 h. On the procedure: (§4) The cell lines were cultured in standard growth medium consisting of RPMI1640 medium supplemented with 10% (v/v) FCS, 1% (v/v) penicillin/streptomycin and 1% (v/v) glutamine[25]–[29]. Two additional cell lines were included in the study representing non-tumorigenic (“healthy”) breast cells, namely 184B5 and MCF10A. These cell lines were cultured using an Endopan 3 medium kit in accordance with the manufacturer’s instruction. For passaging and seeding, cells were treated as previously described. In brief, seeding was done in low density with 6 × 10^3 cells/100 µL in 96-well plates, and with 1.5 × 10^5 cells/1 mL in 6-well plates. […]
(§5) For initial testing of the cytotoxic effect of the available glycophymine compounds (Table S2), cells were treated with compound in three concentrations: 1, 10 and 50 µM. […] Subsequently, the cell viability was determined by using the crystal violet (CV) assay. […]
(§6) For CV assays, after 72 h treatment, the treatment medium was discarded from the 96-well plates, and the cells were washed using 50 µL of PBS. […] Finally, the absorbance was measured at 570 nm by using a SpectraMax M5 plate reader (Molecular Devices, California, USA) and at 670 nm as background wavelength. […] Based on that, IC50 values and standard deviations were calculated for each replicate individually.

Another assay deals with 184B5. The assay is described as above. Type of assay: cell-based. Particulars: Homo sapiens, 72 h. Here is the method: as §4, §5, §6
The subject of assay [6] is 4T1. The experiment in a line: Cell division analysis, CFSE staining, flow cytometry. The note with it: 4T1, IC50 for 72 h. Further details: key: ↑: induction; ↓: inhibition; ↔: no effect. It counts as cell-based, mouse. Here is the method: The cells were stained with CFSE (1 µM) in PBS containing 0.1% (v/v) FCS for 10 min. Afterwards, cells were washed with PBS, and then seeded with growth medium in 6-well plates. The plates were incubated for 24 h under standard culture conditions. […] Subsequently, the cells were detached using 0.5 mL of 0.05% (v/v) Trypsin–EDTA for 3 min at 37 °C. Then trypsin was deactivated by the addition of FCS-containing growth medium. The cell suspensions were collected, centrifuged for 3 min at 800 rpm, and the cell pellets were resuspended in fresh PBS. Finally, the samples were analyzed by using flow cytometry.

Assay [7] deals with 4T1. Put plainly: Autophagy induction, acridine orange staining, flow cytometry. Type of assay: cell-based, mouse. Particulars: 4T1, IC50 for 72 h. More on the design: key: ↑: induction; ↓: inhibition; ↔: no effect. On the procedure:
Cells were seeded in 6-well plates and incubated for 24 h under standard culture conditions. […] For the analyses of autophagy induction, the cell suspension was centrifuged for 3 min at 800 rpm, and the cell pellet was stained with 1 mL of AO working solution (1 µg/mL of AO in growth medium). Cells were incubated for 15 min under standard culture conditions. The cell suspension was centrifuged for 3 min at 800 rpm, and the cell pellet was washed with 1 mL of fresh PBS. Finally, all samples were analyzed by using flow cytometry (FACSAria III, BD Biosciences, New Jersey, USA).

Assay [8] deals with 4T1. The experiment in a line: Crystal violet (CV) cell viability assay, IC50 determination. Type of assay: cell-based. Particulars: Mus musculus, 72 h treatment, mean ± SD. On the procedure:
as §1, §2

Assay [9] concerns BT-474. The assay is described as above. The note with it: Homo sapiens, 72 h treatment, mean ± SD. It counts as cell-based. On the procedure:
as §1, §2

The subject of assay [10] is MCF-7. The assay is described as above. It counts as cell-based. The note with it: Homo sapiens, MCF7, 72 h treatment, mean ± SD. On the procedure: as §1, §2
Assay [11] deals with HCC1937. The assay is described as above. It counts as cell-based. Particulars: Homo sapiens, 72 h treatment, mean ± SD. Here is the method:
as §1, §2

The term IC50 denotes the concentration that inhibits the measured activity by half. With `O=c1[nH]c(Nc2ccc([N+](=O)[O-])cc2)nc2ccccc12` [Compound 19, 4′-nitro-9-aza-glycophymine], the “toxicity against MDA-MB-468 in comparison to gefitinib” value in the assay on MDA-MB-468 [1] (72 h, Fig. S12) is listed as “nearly three times higher toxicity”. The IC50 in the assay on MDA-MB-468 [1] (Homo sapiens, MDA-MB-468, 72 h treatment, mean ± SD) is 5.8 ± 0.3 µM; in the assay on MCF-10A, roughly 4 µM; in the assay with 184B5, roughly 4 µM; with 4T1 [8] it was 12.5 ± 3.7 µM; with BT-474 [9], 4 ± 0.2 µM; in the assay with MCF-7 [10], 5.5 ± 0.6 µM. Moreover, in the assay with HCC1937 [11], the IC50 was 4.3 ± 0.1 µM. The Pan-caspases entry is “↑” in the assay on BT-474 [2], “↔” in the assay on MCF-7 [3], “↔” with MDA-MB-468 [4] and “↑” with HCC1937 [5]. For the same compound, the Proliferation result in the assay with 4T1 [6] is reported as “↓”. Further, the Autophagy entry with 4T1 [7] was “↔”.
